A short description of data set [1]: Etching (dissolution) of deposited layers by IPA/water mixed solvent. In kind it is physicochemical. The settings on record: IPA 60 wt %; for etching rate: deposited film. The text has this:
In the present invention, a larger etching rate means a higher dissolution rate. In addition, a larger etching rate means a higher solubility of a layer having a material of interest in the solvent (polar solvent).
FIG. 3 is a graph illustrating thickness changes in the compound 1 and the compound A2 over an etching time. Here, FIG. 3 illustrates the results of the etching of the respective layers when a mixed solvent obtained by mixing isopropyl alcohol (IPA) and water so that IPA may account for 60 wt % (hereinafter, sometimes referred to as “IPA/water mixed solvent”) is used as a solvent formed of a polar solvent.
When the etching rates of the respective layers are calculated with their etching conditions made identical to each other, the etching rate of the layer A is 0.008 nm/sec but the etching rate of the layer B is 0.87 nm/sec, that is, a ratio of the latter to the former is about 100.
Here, a ratio (n) between the etching rates of the organic compound layer (corresponding to the layer A) and the release layer (corresponding to the layer B) by the polar solvent can be represented like the following equation.
Performed next was a second processing step of removing a part of the release layer 30 with a mixed solvent obtained by mixing water and IPA so that an IPA concentration was 60 wt % to reduce the thickness of the release layer 30. It should be noted that as the etching rate of the compound (phenanthroline derivative represented by the formula (2)) constituting the release layer 30 in this example was 0.9 nm/sec, part of the release layer 30 was removed through immersion in the mixed solvent for 530 seconds so that the thinning was performed (FIG. 2M). As a result of the second processing step, the thickness of the release layer 30 became 20 nm. In addition, each release layer subjected to the thinning in the second processing step functions as the charge transport layer (electron transport layer) 23a, 23b, or 23c. Next, vacuum heating was performed at 80° C. so that the solvent remaining on the charge transport layer was removed.

A short description of data set [2]: Solubility in IPA/water mixed solvent (FIG. 4). The data set is classed as physicochemical. The settings on record: IPA concentration 80 wt %; per 1 g solvent. An excerpt: The solubility of a compound as a constituent material for each layer in the IPA/water mixed solvent varies depending on the weight ratio of IPA in the mixed solvent. FIG. 4 is a graph illustrating the solubilities of the compound 1 (condensed polycyclic hydrocarbon compound) and the compound A2 (heterocyclic compound) in the IPA/water mixed solvent (polar solvent). Here, in the graph of FIG. 4, the axis of abscissa indicates the weight percent concentration of IPA in the IPA/water mixed solvent, and the axis of ordinate indicates the amount of the condensed polycyclic hydrocarbon compound or heterocyclic compound to dissolve in 1 g of the solvent.

`c1ccc(-c2cc(-c3ccccc3)cc(-c3cccc(-c4cccc(-c5ccc6c7ccccc7c7ccccc7c6c5)c4)c3)c2)cc1` [compound B1]: the etching rate in data set [1] was 1.3 nm/s.

For `O=C1c2ccccc2OC2C=CC(c3cccc(-c4cccc(-c5cc(-c6cccc(-c7ccccc7)c6)cc(-c6cccc(C7C=CC=CC7)c6)c5)c4)c3)=CC12` (stereo not shown) [compound C1], in data set [1], the etching rate came to 1.5 nm/s.

On to `CC1(C)c2ccccc2-c2ccc(-c3ccc4ccc5ccc(-c6ccc7c(c6)C(C)(C)c6ccccc6-7)nc5c4n3)cc21` [compound A2], for which the “amount dissolving in 1 g of the IPA/water mixed solvent” value in data set [2] came to 73 µg. In addition, the “thickness change over etching time (FIG. 3)” value in data set [1] was “reduces over time”. In addition, in data set [1] (identical etching conditions), the “ratio (n) of etching rate of release layer (layer B, compound A2) to organic compound layer (layer A, compound 1)” value was “about 100”. In addition, the figures for the etching rate in data set [1] and in data set [1] (listed as formula (2)) were 0.87 nm/s and 0.9 nm/s, respectively.

On to `CC1(C)c2cc(-c3ccc4ccc5cccc6ccc3c4c56)ccc2-c2ccc(-c3ccc4ccc5cccc6ccc3c4c56)cc21` [compound 1], for which the “amount dissolving in 1 g of the IPA/water mixed solvent” value in data set [2] stood at 5 µg. Also, in data set [1], the “thickness change over etching time (FIG. 3)” value is “nearly no thickness reduction” and the etching rate was 0.008 nm/s.

Values taken from patent US8778727B2, “Method of manufacturing organic electroluminescence display device” (Canon Kabushiki Kaisha, priority 2011, dated 2014).
